According to patent US11046647B2, “Activators of the unfolded protein response” (The Board of Trustees of the University of Illinois, priority 2018, dated 2021):

Tests used:
[1] = tested on: intracellular ATP levels in TYS-Luc cells; assay: Intracellular ATP levels, TYS-Luc cells; type: cell-based, human; settings: 10,000 nM thapsigargin, 1 hr
Experimental: TYS-Luc cells were maintained DMSO vehicle (Veh), 1,000 nM BHPI, 1,000 nM (−)-105 with and without 10,000 nM thapsigargin (THG) for the indicated times. ATP levels were determines using a kit and relative ATP levels were from a standard curve. […] (n=3±SEM).

TYS-Luc cells = assay: Cell death with or without thapsigargin, TYS-Luc; type: cell-based, human; settings: 1 hour
Source text: TYS-Luc cells were maintained in DMSO vehicle (Veh) or BHPI, or (−)-105 with or without thapsigargin (THG) for the indicated times. Blocking the decline in ATP levels (FIG. 19) with THG inhibited (−)-105-induced cell death.

C/C=C(/C)C(=O)O[C@H]1C(C)=C2[C@H]([C@@H]1OC(=O)CCCCCCC)[C@@](C)(OC(C)=O)C[C@H](OC(=O)CCC)[C@@]1(O)[C@H]2OC(=O)[C@@]1(C)O [THG, thapsigargin, reference compound]
block of (−)-105-induced decline in intracellular ATP levels [1]: completely blocked
inhibition of (−)-105-induced cell death (TYS-Luc cells): strong inhibition
